In US9475817B2 (BRISTOL-MYERS SQUIBB COMPANY, priority 2012, dated 2016):

Tests used:
[1] = biological target: CK1δ (Homo sapiens (Human), UniProt P48730); experiment: CK1δ kinase assay (Caliper LabChip, fluoresceinated peptide substrate); format: biochemical; conditions: 200 pM CK1δ, 50 μM ATP, 1.5 μM peptide substrate, 22 hours room temperature
Experimental: (§1) CK1ε and CK1δ Kinase Assays
(§2) The kinase assay was performed in V-bottom 384-well plates. […] The reaction was incubated at room temperature for 22 hours and terminated by adding 45 μl of 35 mM EDTA to each sample. […] Compounds were dissolved at 10 mM in dimethylsulfoxide (DMSO) and evaluated at eleven concentrations. IC50 values were derived by non-linear regression analysis.

[2] = biological target: CK1ε (Homo sapiens (Human), UniProt P49674); experiment: CK1ε kinase assay (Caliper LabChip, fluoresceinated peptide substrate); format: biochemical; conditions: 200 pM CK1ε, 50 μM ATP, 1.5 μM peptide substrate, 22 hours room temperature
CK1ε, sequence (P49674 whole entry): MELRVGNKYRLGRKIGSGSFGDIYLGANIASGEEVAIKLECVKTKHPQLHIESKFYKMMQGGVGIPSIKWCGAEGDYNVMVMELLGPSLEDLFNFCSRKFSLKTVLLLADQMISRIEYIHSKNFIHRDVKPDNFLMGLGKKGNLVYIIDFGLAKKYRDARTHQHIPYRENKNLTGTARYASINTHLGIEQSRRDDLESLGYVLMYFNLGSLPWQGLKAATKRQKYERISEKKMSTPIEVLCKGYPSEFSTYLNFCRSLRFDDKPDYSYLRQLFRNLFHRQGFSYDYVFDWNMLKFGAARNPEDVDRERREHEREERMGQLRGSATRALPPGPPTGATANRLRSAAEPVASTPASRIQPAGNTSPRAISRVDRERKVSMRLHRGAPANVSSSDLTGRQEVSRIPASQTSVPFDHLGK
Experimental: as §1, §2

CK1δ, sequence (P48730 whole entry): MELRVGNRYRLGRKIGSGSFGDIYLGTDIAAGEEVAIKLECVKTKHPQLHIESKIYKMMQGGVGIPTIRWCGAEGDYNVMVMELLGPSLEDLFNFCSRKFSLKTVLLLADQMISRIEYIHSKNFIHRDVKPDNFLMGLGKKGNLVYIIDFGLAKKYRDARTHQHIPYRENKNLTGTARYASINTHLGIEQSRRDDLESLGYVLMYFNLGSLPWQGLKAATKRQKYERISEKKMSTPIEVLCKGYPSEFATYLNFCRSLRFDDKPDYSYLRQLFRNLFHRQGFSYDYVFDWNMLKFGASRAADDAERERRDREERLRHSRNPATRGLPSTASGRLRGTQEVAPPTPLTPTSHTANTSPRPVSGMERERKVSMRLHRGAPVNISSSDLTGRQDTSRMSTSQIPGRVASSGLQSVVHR

SMILES | IC50 [1] | IC50 [2]
Cc1nc(-c2ccncc2)sc1C(=O)Nc1cn2nc(-c3c(-c4ccc(F)cc4)nn(C)c3C3CCN(CCC#N)CC3)ccc2n1 [Compound 183, N-(6-(5-(1-(2-Cyanoethyl)piperidin-4-yl)-3-(4-fluorophenyl)-1-methyl-1H-pyrazol-4-yl)imidazo[1,2-b]pyridazin-2-yl)-4-methyl-2-(pyridin-4-yl)thiazole-5-carboxamide] | 0.4 nM | 2.4 nM
Cn1nc(-c2ccc(F)cc2)c(-c2ccc3nc(NC(=O)c4ccnc(F)c4)cn3n2)c1N1CCN(C(=O)CC(F)(F)F)CC1 [Compound 121, 2-Fluoro-N-(6-(3-(4-fluorophenyl)-1-methyl-5-(4-(3,3,3-trifluoropropanoyl)piperazin-1-yl)-1H-pyrazol-4-yl)imidazo[1,2-b]pyridazin-2-yl)isonicotinamide] | 1.2 nM | 14.4 nM
Cn1cc(-c2ccc3nc(NC(=O)c4ccc(CN5CCCC5)cc4)cn3n2)c(-c2ccc(F)cc2)n1 [Compound 30, N-(6-(3-(4-fluorophenyl)-1-methyl-1H-pyrazol-4-yl)imidazo[1,2-b]pyridazin-2-yl)-4-(pyrrolidin-1-ylmethyl)benzamide] | 5.8 nM | 7.9 nM
Cn1cc(-c2ccc3nc(NC(=O)c4ccc(OCC(F)(F)F)nc4)cn3n2)c(-c2ccc(F)cc2)n1 [Compound 68, N-(6-(3-(4-fluorrophenyl)-1-methyl-1H-pyrazol-4-yl)imidazo[1,2-b]pyridazin-2-yl)-6-(2,2,2-trifluoroethoxy)nicotinamide] | 4.4 nM | 28.1 nM
Cc1nc(-c2cccnc2)sc1C(=O)Nc1cn2nc(-c3c(-c4ccc(F)cc4)nn(C)c3C3CCOCC3)ccc2n1 [Compound 201, N-(6-(3-(4-Fluorophenyl)-1-methyl-5-(tetrahydro-2H-pyran-4-yl)-1H-pyrazol-4-yl)imidazo[1,2-b]pyridazin-2-yl)-4-methyl-2-(pyridin-3-yl)thiazole-5-carboxamide] | 0.3 nM | 2.3 nM
Cn1cc(-c2ccc3nc(NC(=O)c4ccccc4)c(F)n3n2)c(-c2ccc(F)cc2)n1 [Compound 192, N-(3-Fluoro-6-(3-(4-fluorophenyl)-1-methyl-1H-pyrazol-4-yl)imidazo[1,2-b]pyridazin-2-yl)benzamide] | 5.6 nM | 23.3 nM
O=C(Nc1cn2nc(-c3cn(C4CC4)nc3-c3ccc(F)cc3)ccc2n1)c1csc(-c2ccncc2)n1 [Compound 103, N-(6-(1-Cyclopropyl-3-(4-fluorophenyl)-1H-pyrazol-4-yl)imidazo[1,2-b]pyridazin-2-yl)-2-(pyridin-4-yl)thiazole-4-carboxamide] | 8.5 nM | 74.9 nM
CN1CCC(c2c(-c3ccc4nc(NC(=O)c5ccncc5)cn4n3)c(-c3ccc(F)cc3)nn2C)CC1 [Compound 165, N-(6-(3-(4-Fluorophenyl)-1-methyl-5-(1-methylpiperidin-4-yl)-1H-pyrazol-4-yl)imidazo[1,2-b]pyridazin-2-yl)isonicotinamide] | 2.7 nM | 5 nM
Cc1nc(-c2ccncc2)sc1C(=O)Nc1cn2nc(-c3c(-c4ccc(F)cc4)nn(C)c3C3CCN(C)CC3)ccc2n1 [Compound 180, N-(6-(3-(4-Fluorophenyl)-1-methyl-5-(1-methylpiperidin-4-yl)-1H-pyrazol-4-yl)imidazo[1,2-b]pyridazin-2-yl)-4-methyl-2-(pyridin-4-yl)thiazole-5-carboxamide] | 2.1 nM | 7.1 nM
Cc1nc(-c2ccncc2)sc1C(=O)Nc1cn2nc(-c3c(-c4ccc(F)cc4)nn(C)c3C3CCN(CCC(F)(F)F)CC3)ccc2n1 [Compound 181, N-(6-(3-(4-fluorophenyl)-1-methyl-5-(1-(3,3,3-trifluoropropyl)piperidin-4-yl)-1H-pyrazol-4-yl)imidazo[1,2-b]pyridazin-2-yl)-4-methyl-2-(pyridin-4-yl)thiazole-5-carboxamide] | 1.1 nM | 14.3 nM
Cc1nc(-c2ccccc2)sc1C(=O)Nc1cn2nc(-c3cn(C)nc3-c3ccc(F)cc3)ccc2n1 [Compound 7, N-(6-(3-(4-fluorophenyl)-1-methyl-1H-pyrazol-4-yl)imidazo[1,2-b]pyridazin-2-yl)-4-methyl-2-phenylthiazol-5-carboxamide] | 8.3 nM | 34.1 nM
Cn1cc(-c2ccc3nc(NC(=O)c4ncccn4)cn3n2)c(-c2ccc(F)cc2)n1 [Compound 29, N-(6-(3-(4-fluorophenyl)-1-methyl-1H-pyrazol-4-yl)imidazo[1,2-b]pyridazin-2-yl)pyrimidine-2-carboxamide] | 16 nM | 48.1 nM
Cn1nc(-c2ccc(F)cc2)c(-c2ccc3nc(NC(=O)c4ccncc4)cn3n2)c1C1CCN(C2CC2)CC1 [Compound 166, N-(6-(5-(1-cyclopropylpiperidin-4-yl)-3-(4-fluorophenyl)-1-methyl-1H-pyrazol-4-yl)imidazo[1,2-b]pyridazin-2-yl)isonicotinamide] | 1.4 nM | 1.9 nM
Cn1cc(-c2ccc3nc(NC(=O)c4cnccc4C(F)(F)F)cn3n2)c(-c2ccc(F)cc2)n1 [Compound 63, N-(6-(3-(4-fluorophenyl)-1-methyl-1H-pyrazol-4-yl)imidazo[1,2-b]pyridazin-2-yl)-4-(trifluoromethyl) nicotinamide] | 8 nM | 34.8 nM
Cn1nc(-c2ccc(F)cc2)c(-c2ccc3nc(NC(=O)c4ccnc(N)c4)cn3n2)c1N1CCNCC1 [Compound 140, 2-Amino-N-(6-(3-(4-fluorophenyl)-1-methyl-5-(piperazin-1-yl)-1H-pyrazol-4-yl)imidazo[1,2-b]pyridazin-2-yl)isonicotinamide] | 2.5 nM | 2.4 nM
Cn1cc(-c2ccc3nc(NC(=O)c4csc(-c5ccncc5)n4)cn3n2)c(-c2ccc(F)cc2)n1 [Compound 8, N-(6-(3-(4-fluorophenyl)-1-methyl-1H-pyrazol-4-yl)imidazo[1,2-b]pyridazin-2-yl)-2-(pyridin-4-yl)thiazole-4-carboxamide] | 5.4 nM | 31.4 nM
Cc1nocc1C(=O)Nc1cn2nc(-c3cn(C)nc3-c3ccc(F)cc3)ccc2n1 [Compound 12, N-(6-(3-(4-fluorophenyl)-1-methyl-1H-pyrazol-4-yl)imidazo[1,2-b]pyridazin-2-yl)-3-methylisoxazole-4-carboxamide] | 7.3 nM | 28.8 nM
Cn1cc(-c2ccc3nc(NC(=O)c4cc(C(C)(C)C)ncn4)cn3n2)c(-c2ccc(F)cc2)n1 [Compound 32, 6-(tert-butyl)-N-(6-(3-(4-fluorophenyl)-1-methyl-1H-pyrazol-4-yl)imidazo[1,2-b]pyridazin-2-yl)pyrimidine-4-carboxamide] | 10.1 nM | 98.3 nM
Cc1nc(-c2cccnc2)sc1C(=O)Nc1cn2nc(-c3c(-c4ccc(F)cc4)nn(C)c3C3CCN(CC(N)=O)CC3)ccc2n1 [Compound 178, N-(6-(5-(1-(2-Amino-2-oxoethyl)piperidin-4-yl)-3-(4-fluorophenyl)-1-methyl-1H-pyrazol-4-yl)imidazo[1,2-b]pyridazin-2-yl)-4-methyl-2-(pyridin-3-yl)thiazole-5-carboxamide] | 0.2 nM | 1.3 nM
O=C(Nc1cn2nc(-c3cn(C4CC4)nc3-c3ccc(F)cc3)ccc2n1)c1cc(F)nc(F)c1 [Compound 105, N-(6-(1-cyclopropyl-3-(4-fluorophenyl)-1H-pyrazol-4-yl)imidazo[1,2-b]pyridazin-2-yl)-2,6-difluoroisonicotinamide] | 4.8 nM | 46.5 nM
Cn1nc(-c2ccc(F)cc2)c(-c2ccc3nc(NC(=O)c4ccncc4)cn3n2)c1C1CCN(C2CCOCC2)CC1 [Compound 167, N-(6-(3-(4-fluorophenyl)-1-methyl-5-(1-(tetrahydro-2H-pyran-4-yl)piperidin-4-yl)-1H-pyrazol-4-yl)imidazo[1,2-b]pyridazin-2-yl)isonicotinamide] | 2.4 nM | 7.7 nM
Cn1cc(-c2ccc3nc(NC(=O)c4ccc(C#N)c(F)c4)cn3n2)c(-c2ccc(F)cc2)n1 [Compound 48, 4-cyano-3-fluoro-N-(6-(3-(4-fluorophenyl)-1-methyl-1H-pyrazol-4-yl)imidazo[1,2-b]pyridazin-2-yl)benzamide] | 5.7 nM | 23.4 nM
Cn1nc(-c2ccc(F)cc2)c(-c2ccc3nc(NC(=O)c4ccnc(F)c4)cn3n2)c1N1CCN(C[C@H](O)C(F)(F)F)CC1 [Compound 128, (S)-2-Fluoro-N-(6-(3-(4-fluorophenyl)-1-methyl-5-(4-(3,3,3-trifluoro-2-hydroxypropyl)piperazin-1-yl)-1H-pyrazol-4-yl)imidazo[1,2-b]pyridazin-2-yl)isonicotinamide] | 1.5 nM | 10.6 nM
O=C(Nc1cn2nc(-c3cn(C4CC4)nc3-c3ccc(F)cc3)ccc2n1)c1ccncc1F [Compound 106, N-(6-(1-cyclopropyl-3-(4-fluorophenyl)-1H-pyrazol-4-yl)imidazo[1,2-b]pyridazin-2-yl)-3-fluoroisonicotinamide] | 3.5 nM | 14 nM
Cn1cc(-c2ccc3nc(NC(=O)c4ccncn4)cn3n2)c(-c2ccc(F)cc2)n1 [Compound 38, N-(6-(3-(4-fluorophenyl)-1-methyl-1H-pyrazol-4-yl)imidazo[1,2-b]pyridazin-2-yl)pyrimidine-4-carboxamide] | 10.7 nM | 43.4 nM
Cn1nc(-c2ccc(F)cc2)c(-c2ccc3nc(NC(=O)c4ccnc(N5CCOCC5)c4)cn3n2)c1C1CCN(CCCF)CC1 [Compound 162, N-(6-(3-(4-Fluorophenyl)-5-(1-(3-fluoropropyl)piperidin-4-yl)-1-methyl-1H-pyrazol-4-yl)imidazo[1,2-b]pyridazin-2-yl)-2-morpholinoisonicotinamide] | 0.5 nM | 17.5 nM
